From ChEMBL document CHEMBL1201862, “PubChem BioAssay data set” (2004)
Calls of active or inactive are those of the source.

Assays:
Streptococcus = test: GAS UMAA2166 growth inhibition – luminescence, BacTiterGlo, counter-screen for streptokinase expression inhibitor project, dose response (AID 1915); type: functional, organism-based;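 also: potency for reduction of bacterial viability or growth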
[1] = tested on: Streptococcus sp. 'group A'; test: Streptococcus pyogenes SK(-)GAS viability under kanamycin – luminescence, BacTiterGlo, confirmation, counter-screen for streptokinase expression inhibitor project, dose response (AID 1900); type: functional, organism-based
Cytochrome P450 2D6 = Cytochrome P450 2D6 (Homo sapiens, UniProt P10635);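 also: CYP2D6 member of a cytochrome P450 panel assay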
Cytochrome P450 1A2 = target: T1, Cytochrome P450 1A2 (Homo sapiens, UniProt P05177);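 also: PubChem cytochrome P450 panel assay, CYP1A2 panel member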
T1 sequence (P05177 whole entry): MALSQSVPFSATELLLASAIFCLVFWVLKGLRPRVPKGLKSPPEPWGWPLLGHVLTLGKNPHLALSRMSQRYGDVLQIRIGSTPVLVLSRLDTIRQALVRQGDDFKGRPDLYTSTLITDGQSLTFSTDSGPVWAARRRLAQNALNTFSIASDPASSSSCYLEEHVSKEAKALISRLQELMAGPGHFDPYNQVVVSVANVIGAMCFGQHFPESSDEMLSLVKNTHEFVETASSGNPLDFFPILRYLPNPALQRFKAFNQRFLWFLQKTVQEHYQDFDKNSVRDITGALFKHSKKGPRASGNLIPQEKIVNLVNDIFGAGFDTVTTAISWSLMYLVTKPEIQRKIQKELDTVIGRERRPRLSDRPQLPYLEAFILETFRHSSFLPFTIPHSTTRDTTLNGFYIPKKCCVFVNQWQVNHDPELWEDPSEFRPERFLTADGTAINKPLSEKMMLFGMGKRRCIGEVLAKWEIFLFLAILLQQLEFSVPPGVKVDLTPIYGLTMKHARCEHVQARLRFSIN

[2] = target: T2, Corticotropin-releasing factor receptor 2/Corticotropin-releasing factor-binding protein (Homo sapiens, UniProt P24387+Q13324); test: activators of CRF receptor 2 with binding protein – uHTS hits, confirmation (AID 602473); type: functional; settings: read-out: EC50_Mean
T2 sequence (Q13324 whole entry): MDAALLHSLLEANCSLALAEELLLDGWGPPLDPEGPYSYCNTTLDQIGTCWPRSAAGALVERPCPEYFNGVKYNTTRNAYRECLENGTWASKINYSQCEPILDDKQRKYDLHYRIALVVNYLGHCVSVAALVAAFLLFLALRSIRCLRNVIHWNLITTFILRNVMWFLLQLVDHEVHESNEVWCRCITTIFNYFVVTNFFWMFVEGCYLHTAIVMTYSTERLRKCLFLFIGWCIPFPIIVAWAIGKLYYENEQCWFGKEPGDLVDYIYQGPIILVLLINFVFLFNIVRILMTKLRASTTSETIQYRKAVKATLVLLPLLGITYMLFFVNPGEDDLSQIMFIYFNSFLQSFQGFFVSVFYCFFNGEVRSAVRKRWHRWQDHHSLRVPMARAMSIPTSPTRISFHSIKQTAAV
T2 sequence (P24387 whole entry): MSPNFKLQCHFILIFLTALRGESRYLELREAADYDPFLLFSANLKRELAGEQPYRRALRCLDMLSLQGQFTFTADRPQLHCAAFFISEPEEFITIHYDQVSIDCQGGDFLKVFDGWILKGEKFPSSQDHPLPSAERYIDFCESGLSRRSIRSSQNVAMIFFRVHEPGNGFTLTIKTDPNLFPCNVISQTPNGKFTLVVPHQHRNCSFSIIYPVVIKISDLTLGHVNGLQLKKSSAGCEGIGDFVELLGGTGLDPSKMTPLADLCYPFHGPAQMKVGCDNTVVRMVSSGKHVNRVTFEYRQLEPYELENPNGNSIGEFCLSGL

Cytochrome P450 2C19 = Cytochrome P450 2C19 (Homo sapiens, UniProt P33261); test: Cytochrome panel assay with activity outcomes. Panel member name: p450-cyp2c19 Compounds with AC50 equal or less than 10 uM are considered active; type: functional
Cytochrome P450 2C9 = Cytochrome P450 2C9 (Homo sapiens, UniProt P11712)
[3] = NIH3T3 cell viability loss – ATP luminescence, mouse fibroblasts, counter-screen, dose response (AID 2010); type: functional, cell-based;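 also: cells exposed to compound for about 90 hours before reading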
[4] = Trypanosoma cruzi growth suppression in host cells – NIH3T3 host cells, beta-gal luminescence, confirmation (AID 2044); type: functional, cell-based;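 also: intracellular parasites grown in NIH/3T3 mouse fibroblasts as host cells; luminescent beta-galactosidase reporter signal from transgenic T. cruzi replicating inside host cells; inhibitors lower the luminescence signal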

Chain of Cytochrome P450 2C9 (P11712 whole entry): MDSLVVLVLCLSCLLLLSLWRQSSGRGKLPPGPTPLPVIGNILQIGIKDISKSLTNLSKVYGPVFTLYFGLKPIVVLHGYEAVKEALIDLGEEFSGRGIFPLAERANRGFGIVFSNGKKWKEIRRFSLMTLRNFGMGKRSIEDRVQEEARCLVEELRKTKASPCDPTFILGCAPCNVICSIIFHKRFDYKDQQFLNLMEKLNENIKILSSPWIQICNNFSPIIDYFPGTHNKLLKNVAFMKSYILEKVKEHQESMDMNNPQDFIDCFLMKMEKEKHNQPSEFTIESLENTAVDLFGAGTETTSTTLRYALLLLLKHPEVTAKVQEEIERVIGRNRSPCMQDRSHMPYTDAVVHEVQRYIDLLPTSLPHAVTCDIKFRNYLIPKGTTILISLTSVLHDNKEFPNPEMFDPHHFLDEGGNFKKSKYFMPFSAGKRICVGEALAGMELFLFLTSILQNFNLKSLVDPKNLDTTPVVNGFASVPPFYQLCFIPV
Chain of Cytochrome P450 2D6 (P10635 whole entry): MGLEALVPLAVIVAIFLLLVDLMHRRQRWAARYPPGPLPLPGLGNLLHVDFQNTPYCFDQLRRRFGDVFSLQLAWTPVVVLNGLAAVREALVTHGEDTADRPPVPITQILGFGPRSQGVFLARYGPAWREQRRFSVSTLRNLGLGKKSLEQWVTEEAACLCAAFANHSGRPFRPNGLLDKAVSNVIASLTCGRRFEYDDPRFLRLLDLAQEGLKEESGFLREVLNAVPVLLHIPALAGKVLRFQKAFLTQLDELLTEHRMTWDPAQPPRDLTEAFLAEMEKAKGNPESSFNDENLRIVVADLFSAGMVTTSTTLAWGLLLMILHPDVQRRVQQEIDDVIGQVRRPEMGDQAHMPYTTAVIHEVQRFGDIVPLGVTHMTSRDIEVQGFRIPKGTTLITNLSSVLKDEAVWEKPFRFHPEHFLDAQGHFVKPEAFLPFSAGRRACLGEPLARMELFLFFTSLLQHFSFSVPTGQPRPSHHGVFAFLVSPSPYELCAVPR
Chain of Cytochrome P450 2C19 (P33261 whole entry): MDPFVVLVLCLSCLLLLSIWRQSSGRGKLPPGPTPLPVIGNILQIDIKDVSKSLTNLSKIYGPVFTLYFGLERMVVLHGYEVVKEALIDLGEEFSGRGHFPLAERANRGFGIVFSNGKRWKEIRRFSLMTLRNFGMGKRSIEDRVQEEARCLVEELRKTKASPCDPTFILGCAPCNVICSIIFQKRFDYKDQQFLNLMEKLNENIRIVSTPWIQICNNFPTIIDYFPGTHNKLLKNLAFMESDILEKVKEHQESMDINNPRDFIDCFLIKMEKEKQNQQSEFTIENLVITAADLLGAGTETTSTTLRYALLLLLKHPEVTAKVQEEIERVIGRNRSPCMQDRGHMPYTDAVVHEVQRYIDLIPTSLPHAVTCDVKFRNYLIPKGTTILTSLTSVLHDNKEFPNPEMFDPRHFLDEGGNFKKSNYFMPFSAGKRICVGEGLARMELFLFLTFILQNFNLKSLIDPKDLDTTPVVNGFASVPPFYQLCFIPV

Cc1cc(/C=C2\C(=N)N3N=C(S(C)(=O)=O)SC3=NC2=O)c(C)n1Cc1ccccc1
EC50 (Streptococcus): 21.1 µM (active) | EC50 [1]: 4.19 µM (active)

COc1ccc(C(=O)OCC(=O)Nc2nnc(-c3ccccc3)o2)cc1
EC50 (Streptococcus): 19.2 µM (active) | EC50 [1]: 5.97 µM (active)

COc1ccc(C(=O)C(OC(=O)CNC(=O)c2ccco2)c2ccccc2)cc1 (stereo unspecified)
AC50 (Cytochrome P450 2D6): 35.5 µM (inconclusive) | AC50 (Cytochrome P450 1A2): 31.6 µM (inconclusive)

CC(OC(=O)c1ccc(S(=O)(=O)NCc2ccco2)cc1)C(=O)Nc1ccc(Cl)cn1 (stereo unspecified)
EC50 [2]: 4.62 µM (active)

C#CCOC(=O)Nc1ccc(=O)n(Cc2c(Cl)cccc2Cl)c1
AC50 (Cytochrome P450 2D6): 20 µM (inconclusive) | AC50 (Cytochrome P450 1A2): 12.6 µM (inconclusive)

NC(=NOC(=O)Cc1ccc(-c2ccccc2)cc1)c1cccc([N+](=O)[O-])c1
AC50 (Cytochrome P450 2C19; read-out: AC50): 2.82 µM (inconclusive) | AC50 (Cytochrome P450 2C9): 10 µM (inconclusive)

Cc1ccc2c(c1)N(CC(=O)NC1CCC(C)CC1)C(=O)CO2 (stereo unspecified)
AC50 (Cytochrome P450 2D6): 14.1 µM (inconclusive)

O=C(CSc1nc2ccccc2s1)c1sc2sc3ccccc3[n+]2c1O
AC50 (Cytochrome P450 2C9): 6.31 µM (inconclusive)

Cc1ccc(C(=N)c2ccccc2Cc2cccc3ccccc23)c2ccccc12
AC50 (Cytochrome P450 2D6): 2.51 µM (inconclusive) | AC50 (Cytochrome P450 1A2): 1 µM (inconclusive)

O=C(NC(=S)Nc1ccc(CN2CCCCC2)cc1)c1cccc(OCc2ccccc2)c1
EC50 [3]: > 60 µM (not active) | EC50 [4]: 1.09 µM (active)

c1ccc(CCNCc2ccco2)nc1
AC50 (Cytochrome P450 2D6): 2.51 µM (inconclusive) | AC50 (Cytochrome P450 1A2): 6.31 µM (inconclusive)

O=C(CN1CCCC1)Nc1ccccc1Sc1ccccc1
EC50 [2]: > 53 µM (inactive)

CC(C)c1cc(-c2cc(C(=O)NCc3ccccc3)on2)nc(NCC2CC2)n1
EC50 [2]: 10.2 µM (active)

Cc1cc(SCC(=O)c2ccc(Br)cc2)cc(C)[o+]1
AC50 (Cytochrome P450 2C19; read-out: AC50): 0.398 µM (inconclusive) | AC50 (Cytochrome P450 2D6): 3.16 µM (inconclusive)

CN(C)CCCNc1c2c(=O)n(C)c(=O)nc-2n(C)c2ccccc12
AC50 (Cytochrome P450 1A2): 5.01 µM (inconclusive)

CCOC(=O)/C(=C\c1ccc([N+](=O)[O-])o1)NC(=O)c1ccccc1
EC50 [3]: > 60 µM (not active) | EC50 [4]: 0.995 µM (active)

C[C@H](N[C@@H](C)COc1ccccc1)[C@H](O)c1ccc(O)cc1 [ISOXSUPRINE]
AC50 (Cytochrome P450 2C19; read-out: AC50): 15.8 µM (inconclusive)

CCOC(=O)c1ccc(NC(=O)C2CCCO2)cc1 (stereo unspecified)
AC50 (Cytochrome P450 2C19; read-out: AC50): 14.1 µM (inconclusive) | AC50 (Cytochrome P450 2C9): 0.0251 µM (inconclusive)

O=[N+]([O-])c1cc(Oc2cccnc2)cc([N+](=O)[O-])c1
EC50 [3]: > 60 µM (not active) | EC50 [4]: 0.503 µM (active)

Oc1ccc(Oc2nc(N3CCOCC3)nc(N3CCOCC3)n2)nn1
AC50 (Cytochrome P450 2C19; read-out: AC50): 2.82 µM (inconclusive)

c1ccc(CN2CCCC3(CCCN(Cc4nc(COc5ccccc5)no4)C3)C2)cc1 (stereo unspecified)
EC50 [3]: > 60 µM (not active) | EC50 [4]: 0.285 µM (active)

O=S(=O)(c1ccccc1)c1cnn2c(C(F)(F)F)cc(-c3ccccc3)nc12
AC50 (Cytochrome P450 2C19; read-out: AC50): 39.8 µM (inconclusive) | AC50 (Cytochrome P450 2C9): 0.708 µM (inconclusive)

Cc1ccnc(NC(=O)c2cc([N+](=O)[O-])cc([N+](=O)[O-])c2)c1
EC50 [3]: > 60 µM (not active) | EC50 [4]: 0.193 µM (active)

N#CCCn1c(=O)c(-c2ccc(F)cc2)nc2cnc(Oc3cccc(Cl)c3)nc21
AC50 (Cytochrome P450 1A2): 0.501 µM (inconclusive)

Cc1ccc(SCc2n[nH]c3c2C(C(C)C)C(C#N)=C(N)O3)cc1 (stereo unspecified)
AC50 (Cytochrome P450 2D6): 0.00316 µM (inconclusive)

CCOc1ccc(NS(=O)(=O)c2ccc(C(=O)N3CCCC(C)C3)cc2)cc1 (stereo unspecified)
EC50 [2]: 11.1 µM (active)

CC(=O)SC[C@@H](Cc1ccccc1)C(=O)NCC(=O)OCc1ccccc1 [ECADOTRIL]
AC50 (Cytochrome P450 2C9): 3.98 µM (inconclusive)

COc1cccc(C(=O)NC2CCN(C(=O)N3c4ccccc4Sc4ccccc43)CC2)c1
EC50 [3]: > 60 µM (not active) | EC50 [4]: 2.23 µM (active)

O=C(COc1ccc2ccccc2c1)N1CCN(CC2CC3C=CC2C3)CC1 (stereo unspecified)
AC50 (Cytochrome P450 1A2): 22.4 µM (inconclusive)

O=C(CCS(=O)(=O)c1cccs1)N1CCN(c2ccc(F)cc2)CC1
AC50 (Cytochrome P450 2C9): 2.51 µM (inconclusive) | AC50 (Cytochrome P450 1A2): 31.6 µM (inconclusive)

N#Cc1ccc(CN2CCCC3(CCN(C(=O)c4cnccn4)CC3)C2)cc1
AC50 (Cytochrome P450 2D6): 10 µM (inconclusive)

Cn1cc(-c2nc3cncnc3n(-c3ccccc3)c2=O)c2ccccc21
AC50 (Cytochrome P450 2C19; read-out: AC50): 39.8 µM (inconclusive)

CCOC(=O)c1c(-c2ccccc2)csc1NC(=O)/C(C#N)=C\c1ccc(O)c(OC)c1
EC50 [2]: 6.49 µM (active)

COc1ccc(NC(=O)OC(C)C)cc1
AC50 (Cytochrome P450 2C19; read-out: AC50): 28.2 µM (inconclusive) | AC50 (Cytochrome P450 2C9): 14.1 µM (inconclusive) | AC50 (Cytochrome P450 2D6): 35.5 µM (inconclusive)

CCC(=O)NC(NC(=O)CC)C(Cl)Cl
AC50 (Cytochrome P450 2C9): 20 µM (inconclusive)

Cc1ccc(-c2ccc(=O)n(CC(=O)N3CCN(c4cccc(C)c4)C(C)C3)n2)cc1 (stereo unspecified)
AC50 (Cytochrome P450 2C9): 20 µM (inconclusive) | AC50 (Cytochrome P450 2D6): 28.2 µM (inconclusive) | AC50 (Cytochrome P450 1A2): 20 µM (inconclusive)

COc1ccccc1CN1CC[C@@]2(CCCN(S(=O)(=O)c3ccccc3)C2)C1
AC50 (Cytochrome P450 1A2): 25.1 µM (inconclusive)

Cc1cccc([C@H](C)c2cnc[nH]2)c1C [DEXMEDETOMIDINE]
AC50 (Cytochrome P450 2D6): 12.6 µM (inconclusive)

COc1ccc(C(=O)c2sc(Nc3cccc(OC)c3)c(C(=O)Nc3cccc(C)c3C)c2N)cc1
EC50 [2]: > 53 µM (inactive)

CCOc1ccc(N2C(=O)CS/C2=N/NC(=O)COc2ccc3ccccc3c2)cc1
AC50 (Cytochrome P450 2C9): 31.6 µM (inconclusive) | AC50 (Cytochrome P450 2D6): 39.8 µM (inconclusive)

CCCCN(C)CCCNC(=O)c1ccc2c(c1)N(CC)C(=O)c1ccccc1[S+]2[O-] (stereo unspecified)
EC50 [3]: > 60 µM (not active) | EC50 [4]: 0.238 µM (active)

COc1ccccc1/C=C/C(=O)OCCCN(C)C
EC50 [3]: > 30 µM (not active) | EC50 [4]: 0.794 µM (active)

Cc1cc(C)c2nc3c(c([C@H](O)[C@@H]4CCCCN4)c2c1)CC/C3=C/c1ccc(Cl)cc1
AC50 (Cytochrome P450 2C9): 1 µM (inconclusive)

COC(=O)[C@@]1(Cc2ccccc2)[C@H]2c3cc(C(=O)N4CCCC4)n(Cc4ccc(C(F)(F)F)nc4)c3C[C@H]2CN1C(=O)c1ccccc1
AC50 (Cytochrome P450 2D6): 25.1 µM (inconclusive)

Cc1cccc(-n2c(SCc3ccc([N+](=O)[O-])cc3)nnc2-c2c[nH]c3ccccc23)c1
EC50 [3]: > 60 µM (not active) | EC50 [4]: 1.77 µM (active)

O=C(O)CCC(=O)c1ccc(-c2ccccc2)cc1 [FENBUFEN]
AC50 (Cytochrome P450 1A2): 12.6 µM (inconclusive)

Cc1ccc(C(=O)NNC(=O)CSc2nnc(-c3ccncc3)n2-c2ccc(C)cc2)cc1
AC50 (Cytochrome P450 2D6): 12.6 µM (inconclusive)

COc1c(Cl)cc(-c2noc(C)c2C(=O)NCc2ccc3c(c2)OCO3)cc1Cl
EC50 [2]: > 53 µM (inactive)

CCn1cnc2c(Nc3cccc(Cl)c3)nc(N[C@@H]3CCCC[C@H]3N)nc21
AC50 (Cytochrome P450 2C19): inconclusive

O=C(Nc1ccncc1)c1cc(S(=O)(=O)N2CCN(c3ccccc3)CC2)ccc1Cl
EC50 [3]: > 30 µM (not active) | EC50 [4]: 2.56 µM (active)

C=CCN1CCC2(C)c3cc(O)ccc3CC1C2C (stereo unspecified)
EC50 [2]: > 53 µM (inactive)

COCc1c(C(=O)OCC(=O)N2c3ccccc3NC(=O)C2(C)C)oc2ccccc12
AC50 (Cytochrome P450 2C19; read-out: AC50): 20 µM (inconclusive) | AC50 (Cytochrome P450 2C9): 31.6 µM (inconclusive)

CCN1C(=O)[C@@H]2[C@H]3C(=CC[C@@H]2C1=O)C1(OCCCO1)[C@H]1O[C@@H]1[C@H]3O
AC50 (Cytochrome P450 2C9): 5.01 µM (inconclusive)

CC(=O)N1CCC(=O)N(C(C)C)c2ccccc21
AC50 (Cytochrome P450 2C9): 0.0282 µM (inconclusive)
